Test results from paper PMC9226124, “Macrocycle-stabilization of its interaction with 14-3-3 increases plasma membrane localization and activity of CFTR” (Nature Communications, 2022).
“And” between values parts separate entries of the source, which are not always exact repeats. Identical values can stand only once.

How the values were obtained:
[1] = molecular target: T1, 14-3-3β/CFTRpS753pS768 complex (Homo sapiens, UniProt P13569+P31946); test: Dose-response fluorescence polarization (FP) assay, compound titration; assay type: binding; details: for FP signal: With 14-3-3; for Polarization, background subtracted: 14-3-3 10 μM, peptide 100 nM, replicates
T1 construct: His6 (cleaved yes); made in house; peptide synthetic
T1 sequence (P31946 whole entry): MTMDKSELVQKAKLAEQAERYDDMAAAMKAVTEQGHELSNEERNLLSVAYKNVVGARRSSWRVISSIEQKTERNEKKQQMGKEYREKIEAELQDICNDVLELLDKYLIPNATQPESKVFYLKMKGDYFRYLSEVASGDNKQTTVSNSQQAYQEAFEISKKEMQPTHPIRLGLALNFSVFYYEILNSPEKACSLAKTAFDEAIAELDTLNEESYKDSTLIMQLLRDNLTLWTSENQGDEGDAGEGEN
T1 sequence (P13569 747-774 limits assumed): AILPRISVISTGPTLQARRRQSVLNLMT
How it was run: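 Compounds were titrated in two-fold dilutions against 10 μM 14-3-3β and FITC-CFTR pS753pS768 peptide (100 nM or 10 nM). Buffer: 10 mM HEPES pH 7.4, 150 mM NaCl, 0.1% Tween20, 1 mg/mL BSA. Polarization was read at ex 485/em 535 nm, and EC50 was derived from a four-parameter variable-slope fit.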

[2] = molecular target: T1, 14-3-3β/CFTRpS753pS768 complex; test: FP assay, 14-3-3β titration at constant compound concentration (apparent KD); assay type: binding; details: for Polarization: FC 100 uM, peptide 100 nM; for Polarization / FP signal, 14-3-3β titration / FP signal: replicates; for FP signal, 14-3-3β titration / FP signal: compound 100 μM; for Fluorescence polarization signal, 14-3-3β titration: FC-A (100 μM)

SMILES: C=CC(C)(C)OC[C@H]1O[C@H](O[C@@H]2C3=C([C@H](C)COC(C)=O)C[C@H](O)[C@]3(C)/C=C3/[C@@H](COC)CC[C@H]3[C@@H](C)[C@H]2O)[C@H](O)[C@@H](OC(C)=O)[C@@H]1O [FC-A, fusicoccin A, reference compound]
- EC50 ([1]; 14-3-3β 10 μM, labeled CFTRpS753pS768 100 nM, read-out: EC50): 69.7 µM
- FP signal ([1]; compound 476.8 pM): 1
- FP signal ([1]; compound 953.7 pM): 5
- FP signal ([1]; compound 1.90735e-9 M): 0
- FP signal ([1]; compound 3.8147e-9 M): 3
- FP signal ([1]; compound 7.6294e-9 M): 3
- FP signal ([1]; compound 1.52588e-8 M): 2
- FP signal ([1]; compound 3.05176e-8 M): 2
- FP signal ([1]; compound 6.10352e-8 M): 1
- FP signal ([1]; compound 1.2207e-7 M): 1
- FP signal ([1]; compound 2.44141e-7 M): 2
- FP signal ([1]; compound 4.88281e-7 M): 4
- FP signal ([1]; compound 9.76563e-7 M): 5
- FP signal ([1]; compound 1.95313e-6 M): 6
- FP signal ([1]; compound 3.90625e-6 M): 15
- FP signal ([1]; compound 7.8125e-6 M): 23
- FP signal ([1]; compound 1.5625e-5 M): 37
- FP signal ([1]; compound 3.125e-5 M): 53
- FP signal ([1]; compound 6.25e-5 M): 70
- FP signal ([1]; compound 0.000125 M): 91
- FP signal ([1]; compound 0.00025 M): 104
- FP signal ([1]; compound 0.0005 M): 116
- FP signal ([1]; compound 0.001 M): 133
- Polarization, background subtracted ([1]; compound 7.8125e-7 M): 8.267 (2×) and 9.167
- Polarization, background subtracted ([1]; compound 1.5625e-6 M): 13.6667 (2×) and 15.2667
- Polarization, background subtracted ([1]; compound 3.125e-6 M): 22.4667 and 22.7667 and 24.2667
- Polarization, background subtracted ([1]; compound 6.25e-6 M): 35.6667 and 36.6667 (2×)
- Polarization, background subtracted ([1]; compound 1.25e-5 M): 51.9667 and 52.3667 and 53.1667
- Polarization, background subtracted ([1]; compound 2.5e-5 M): 71.5667 and 71.6667 and 72.5667
- Polarization, background subtracted ([1]; compound 5e-5 M): 88.8667 and 90.2667 and 89.8667
- Polarization, background subtracted ([1]; compound 0.0001 M): 104.867 and 104.367 and 104.267
- Polarization ([2]; 14-3-3β 119.2 pM, listed as FC): 20 and 18
- FP signal, 14-3-3β titration ([2]; 14-3-3β 119.2 pM): 3.333 and 5.333 (2×)
- FP signal ([2]; 14-3-3β 139.2 pM): 5 (2×) and 3
- Polarization ([2]; 14-3-3β 238.4 pM, listed as FC): 22 and 21
- FP signal, 14-3-3β titration ([2]; 14-3-3β 238.4 pM): 3.333 and 4.333 and 2.333
- FP signal ([2]; 14-3-3β 278.5 pM): 6 and 5 and 4
- Polarization ([2]; 14-3-3β 476.8 pM, listed as FC): 21 and 19 and 18
- FP signal, 14-3-3β titration ([2]; 14-3-3β 476.8 pM): 4.333 (2×) and 2.333
- FP signal ([2]; 14-3-3β 556.9 pM): 6 (2×) and 5
- Polarization ([2]; 14-3-3β 953.7 pM, listed as FC): 21 and 20 and 18
- FP signal, 14-3-3β titration ([2]; 14-3-3β 953.7 pM): 4.333 (2×) and 6.333
- FP signal ([2]; 14-3-3β 1.11389e-9 M): 5 and 7 and 8
- Polarization ([2]; 14-3-3β 1.90735e-9 M, listed as FC): 18 and 20 and 19
- FP signal, 14-3-3β titration ([2]; 14-3-3β 1.90735e-9 M): 0.3333 and 5.333 and 3.333
- FP signal ([2]; 14-3-3β 2.22778e-9 M): 6 and 8 and 5
- Polarization ([2]; 14-3-3β 3.8147e-9 M, listed as FC): 21 and 19
- FP signal, 14-3-3β titration ([2]; 14-3-3β 3.8147e-9 M): 0.3333 and 3.333 and 2.333
- FP signal ([2]; 14-3-3β 4.45557e-9 M): 4 and 7 and 9
- Polarization ([2]; 14-3-3β 7.62939e-9 M, listed as FC): 20 and 22 and 19
- FP signal, 14-3-3β titration ([2]; 14-3-3β 7.62939e-9 M): 6.333 and 3.333 and 1.333
- FP signal ([2]; 14-3-3β 8.91113e-9 M): 4 and 8 and 6
- Polarization ([2]; 14-3-3β 1.52588e-8 M, listed as FC): 22 and 19
- FP signal, 14-3-3β titration ([2]; 14-3-3β 1.52588e-8 M): 1.333 and 7.333 and 4.333
- FP signal ([2]; 14-3-3β 1.78223e-8 M): 6 (2×) and 7
- Polarization ([2]; 14-3-3β 3.05176e-8 M, listed as FC): 23 and 20 and 22
- FP signal, 14-3-3β titration ([2]; 14-3-3β 3.05176e-8 M): 2.333 and 4.333 and 5.333
- FP signal ([2]; 14-3-3β 3.56445e-8 M): 9 (2×) and 7
- Polarization ([2]; 14-3-3β 6.10352e-8 M, listed as FC): 24 and 25
- FP signal, 14-3-3β titration ([2]; 14-3-3β 6.10352e-8 M): 7.333 and 6.333 (2×)
- FP signal ([2]; 14-3-3β 7.12891e-8 M): 10 (2×) and 11
- Polarization ([2]; 14-3-3β 1.2207e-7 M, listed as FC): 28 and 30
- FP signal, 14-3-3β titration ([2]; 14-3-3β 1.2207e-7 M): 5.333 and 9.333 and 6.333
- FP signal ([2]; 14-3-3β 1.42578e-7 M): 15 and 16 and 14
- Polarization ([2]; 14-3-3β 2.44141e-7 M): 35
- FP signal, 14-3-3β titration ([2]; 14-3-3β 2.44141e-7 M): 9.333 and 10.3333 and 5.333
- FP signal ([2]; 14-3-3β 2.85156e-7 M): 24 and 22 (2×)
- Polarization ([2]; 14-3-3β 4.88281e-7 M, listed as FC): 48 and 46
- FP signal, 14-3-3β titration ([2]; 14-3-3β 4.88281e-7 M): 9.333 (2×) and 12.3333
- FP signal ([2]; 14-3-3β 5.70313e-7 M): 40 (2×) and 33
- Polarization ([2]; 14-3-3β 9.76563e-7 M, listed as FC): 68 and 64 and 69
- FP signal, 14-3-3β titration ([2]; 14-3-3β 9.76563e-7 M): 18.3333 and 11.3333 and 16.3333
- FP signal ([2]; 14-3-3β 1.14063e-6 M): 66 and 63 and 57
- Polarization ([2]; 14-3-3β 1.95313e-6 M, listed as FC): 98 and 96 and 97
- FP signal, 14-3-3β titration ([2]; 14-3-3β 1.95313e-6 M): 32.3333 and 30.3333 and 31.3333
- FP signal ([2]; 14-3-3β 2.28125e-6 M): 97 and 94 and 86
- Polarization ([2]; 14-3-3β 3.90625e-6 M, listed as FC): 135 and 137
- FP signal, 14-3-3β titration ([2]; 14-3-3β 3.90625e-6 M): 47.3333 (2×) and 44.3333
- FP signal ([2]; 14-3-3β 4.5625e-6 M): 137 and 131 and 124
- Polarization ([2]; 14-3-3β 7.8125e-6 M, listed as FC): 175 and 176
- FP signal, 14-3-3β titration ([2]; 14-3-3β 7.8125e-6 M): 71.3333 and 69.3333 and 64.3333
- FP signal ([2]; 14-3-3β 9.125e-6 M): 171 and 164 and 159
- Polarization ([2]; 14-3-3β 1.5625e-5 M, listed as FC): 212 and 209
- FP signal, 14-3-3β titration ([2]; 14-3-3β 1.5625e-5 M): 98.3333 and 94.3333 (2×)
- FP signal ([2]; 14-3-3β 1.825e-5 M): 202 and 191 and 192
- Polarization ([2]; 14-3-3β 3.125e-5 M, listed as FC): 234 and 235 and 231
- FP signal, 14-3-3β titration ([2]; 14-3-3β 3.125e-5 M): 123.333 and 117.333 and 124.333
- FP signal ([2]; 14-3-3β 3.65e-5 M): 216 and 213 and 212
- Polarization ([2]; 14-3-3β 6.25e-5 M, listed as FC): 246 and 249 and 248
- FP signal, 14-3-3β titration ([2]; 14-3-3β 6.25e-5 M): 146.333 and 138.333 and 142.333
- FP signal ([2]; 14-3-3β 7.3e-5 M): 227 and 226 and 224
- Polarization ([2]; 14-3-3β 0.000125 M, listed as FC): 256 and 254
- FP signal, 14-3-3β titration ([2]; 14-3-3β 0.000125 M): 152.333 and 153.333 and 150.333
- FP signal ([2]; 14-3-3β 0.000146 M): 232 and 230 and 229
- Polarization ([2]; 14-3-3β 0.00025 M, listed as FC): 260 and 261 and 258
- FP signal, 14-3-3β titration ([2]; 14-3-3β 0.00025 M): 165.333 and 161.333 and 167.333
- FP signal, 14-3-3β titration ([2]; 14-3-3β 0.0005 M): 177.333 and 174.333 and 175.333
- Fluorescence polarization signal, 14-3-3β titration ([2]; 14-3-3β concentration 119.2 pM): 3.333 and 5.333
- Fluorescence polarization signal, 14-3-3β titration ([2]; 14-3-3β concentration 238.4 pM): 3.333 and 4.333 and 2.333
- Fluorescence polarization signal, 14-3-3β titration ([2]; 14-3-3β concentration 476.8 pM): 4.333 and 2.333
- Fluorescence polarization signal, 14-3-3β titration ([2]; 14-3-3β concentration 953.7 pM): 4.333 and 6.333
- Fluorescence polarization signal, 14-3-3β titration ([2]; 14-3-3β concentration 6.10352e-8 M): 7.333 and 6.333
- Fluorescence polarization signal, 14-3-3β titration ([2]; 14-3-3β concentration 1.2207e-7 M): 5.333 and 9.333 and 6.333
- Fluorescence polarization signal, 14-3-3β titration ([2]; 14-3-3β concentration 2.44141e-7 M): 9.333 and 10.3333 and 5.333
- Fluorescence polarization signal, 14-3-3β titration ([2]; 14-3-3β concentration 4.88281e-7 M): 9.333 and 12.3333
- Fluorescence polarization signal, 14-3-3β titration ([2]; 14-3-3β concentration 9.76563e-7 M): 18.3333 and 11.3333 and 16.3333
- Fluorescence polarization signal, 14-3-3β titration ([2]; 14-3-3β concentration 1.95313e-6 M): 32.3333 and 30.3333 and 31.3333
- Fluorescence polarization signal, 14-3-3β titration ([2]; 14-3-3β concentration 3.90625e-6 M): 47.3333 and 44.3333
- Fluorescence polarization signal, 14-3-3β titration ([2]; 14-3-3β concentration 7.8125e-6 M): 71.3333 and 69.3333 and 64.3333
- Fluorescence polarization signal, 14-3-3β titration ([2]; 14-3-3β concentration 1.5625e-5 M): 98.3333 and 94.3333
- Fluorescence polarization signal, 14-3-3β titration ([2]; 14-3-3β concentration 3.125e-5 M): 123.333 and 117.333 and 124.333
- Fluorescence polarization signal, 14-3-3β titration ([2]; 14-3-3β concentration 6.25e-5 M): 146.333 and 138.333 and 142.333
- Fluorescence polarization signal, 14-3-3β titration ([2]; 14-3-3β concentration 0.000125 M): 152.333 and 153.333 and 150.333
- Fluorescence polarization signal, 14-3-3β titration ([2]; 14-3-3β concentration 0.00025 M): 165.333 and 161.333 and 167.333
- Fluorescence polarization signal, 14-3-3β titration ([2]; 14-3-3β concentration 0.0005 M): 177.333 and 174.333 and 175.333
